# How the values were obtained:
# CSPα = CSPα oligomerization and palmitoylation in ANCL patient-derived induced neurons (quantitative immunoblotting); assay type: cell-based, human; conditions: ANCL iNs; 72 h; compared to vehicle alone; FIG. 7B
# Description: (§1) ANCL patient-derived fibroblasts were treated with 200 μM of L1 or Dfx, or vehicle (0.1% DMSO=Control) for 72 h, before measuring the UV-Vis absorbance spectra of immunoprecipitated CSPα eluted by trypsinization (solid lines). Spectra were re-read after 10 min of 0.1 N HCl treatment (dashed lines). The experiments shown in FIGS. 7B-7I, were conducted using ANCL fibroblasts converted to iNs using BAM+ND1 technique. […] Quantitative immunoblotting was used to measure levels of oligomerized and fully palmitoylated CSPα as well as total SNAP-25. Oligo=oligomers; Palm=palmitoylated. […] The interaction of CSPα with SNAP-25 in ANCL iNs was measured by immunoprecipitating SNAP-25 followed by quantitative immunoblotting of co-immunoprecipitated CSPα (normalized to SNAP-25 IP). Note that mainly CSPα monomers and not oligomers were detected bound to SNAP-25. Control=control sham IP without IgG. […] Turnover of SNAP-25 was determined by cycloheximide chase, while maintaining the iron-chelators or vehicle in the medium. […] In the experiments shown in FIGS. 7E-7G, ANCL iNs treated with L1, Dfx, or vehicle for 56 d and analyzed. […] The levels of lipofuscin were determined by ELISA. In the experiments shown in FIGS. 7H-7I 56 day old untreated ANCL iNs were treated with L1, Dfx, or vehicle, and analyzed. […] Data are from FIG. 7A representative of n=4, FIG. 7B n=4, FIG. 7C n=4, FIG. 7D n=7, FIG. 7F n=4, FIG. 7G n=4, FIG. 7H n=6, FIG. 7I n=3. In FIGS. 7B-7C and FIGS. 7F-7G *P<0.05; **P<0.01; ****P<0.0001 by two-tailed Student's t-test. #P<0.05 by Mann-Whitney-Wilcoxon U test. In FIG. 7D-7C and FIGS. 7H-7I **P<0.01; ***P<0.001; ****P<0.0001 by two-way ANOVA; ##P<0.01; ###P<0.001; ####P<0.0001 by Tukey's multiple comparisons test.
# For pharmacological iron-chelation, deferiprone (L1; 200 μM; Biotang), deferoxamine mesylate (Dfx; 200 μM; Calbiochem), or 0.1% DMSO as vehicle control were added to the respective culture media of primary cortical neurons, fibroblasts, or iNs. When these media were changed, the fresh media contained identical concentration of the respective iron-chelator or vehicle.
# Fibroblasts from an affected person carrying the L116Δ mutation were obtained, and an age-and-sex matched unaffected fibroblast line was frozen, thawed and cultured in parallel to maintain similar passage numbers. Fibroblasts were maintained in DMEM supplemented with 10% fetal bovine serum supplemented with L-glutamine, penicillin, and streptomycin. […]
# For SDS-PAGE, 10-15% Laemmli gels (10.3% T and 3.3% C) were used to separate proteins on Bio-Rad apparati. […] Immunoblots were washed 5× with TBS-T and dried, then scanned on Odyssey CLx (LI-COR) and quantified using Image-Studio software (LI-COR). […]
# ANCL iNs = test: Lipofuscin ELISA in ANCL iNs; assay type: cell-based, human; conditions: compared to control; for lipofuscin ELISA signal: ANCL iNs treated for 56 d (prevention), FIG. 7G; for levels of lipofuscin (ELISA): added to ANCL iNs after 56 days of lipofuscin accumulation, 0, 7, 14, 21 d of treatment, FIG. 7I
# Description: as §1
# iNs from each well of a 6 well dish were solubilized in 100 μl PBS with 0.1% Triton X-100 for 1 h at 4° C. Post nuclear supernatant collected by centrifugation at 1000 gav for 15 min was used for the assay. These samples were analyzed for lipofuscin content using human lipofuscin competitive ELISA (MyBiosource; MBS7217173). Following the colorimetric reaction, optical density at 450 nm was read from the standard and the sample wells using Synergy H1 Hybrid Reader (BioTek).
# Effect of iron chelators on the accumulation of lipofuscin was monitored by ELISA for lipofuscin or based on lipofuscin autofluorescence. […] Effect of iron chelators on the accumulation of ATP5G was also studied.
# As a treatment paradigm, iron-chelators were also added post-accumulation of lipofuscin. L1 and Dfx were added to ANCL iNs after 56 days of lipofuscin accumulation, and levels of ATP5G and lipofuscin were compared over the subsequent 3 weeks.
SMILES,oligomerization of CSPα (CSPα),palmitoylation of CSPα (CSPα),lipofuscin ELISA signal (ANCL iNs),levels of lipofuscin (ELISA) (ANCL iNs)
"CC(=O)N(O)CCCCCNC(=O)CCC(=O)N(O)CCCCCNC(=O)CCC(=O)N(O)CCCCCN [Dfx, N′-[5-(Acetyl-hydroxy-amino)pentyl]-N-[5-[3-(5-aminopentyl-hydroxy-carbamoyl)propanoylamino]pentyl]-N-hydroxy-butane diamide]",reduced the oligomerization,improved palmitoylation,significant reduction,reduced to the levels observed in the prevention experiments
"Cc1c(O)c(=O)ccn1C [L1, 3-hydroxy-1,2-dimethyl-4(1H)-pyridone]",reduced the oligomerization,improved palmitoylation,significant reduction,reduced to the levels observed in the prevention experiments
